# Data from patent publication US9850247B2 (Almac Discovery Limited, priority 2013, dated 2017).
# Like-named read-outs stand apart in the source and are kept apart here.
# Experiments:
# Wee-1 kinase = molecular target: T1, Wee-1 kinase (Homo sapiens, UniProt P30291); assay: Measurement of Wee-1 kinase activity (ADP-Glo luminescent kit); type: biochemical
# T1 construct: purchased Invitrogen PV3817
# Outline: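 Activated Wee-1 was pre-incubated 30 min at RT with compound in 40 mM Tris-HCl, 20 mM MgCl2, 0.1 mg/mL BSA and 2 mM DTT. The reaction was started with an aliquot of 2.0 μg/mL poly(Lys,Tyr 4:1) plus 30 μM ATP and run 1 h at RT. ADP-Glo luminescence gave IC50 by non-linear fit.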
# [1] = tested on: phospho-cdc2 (Tyr15) in HT-29 cells; assay: Effect on Cdc2 phosphorylation at Tyr15, Cell-Based ELISA Base Kit (Method 3); conditions: eight hours incubation, normalized to total cdc2, read-out: HT29 pCDC2 method 3
# Description: Method 3: Determining the Effect of Compounds on the Cdc2 phosphorylation at Tyr15, using a Cell-Based ELISA Base Kit (R&D Systems, KCB001)
# The colorectal cancer cell line, HT-29 was purchased from the ATCC and maintained in McCoy's 5 A medium (Gibco®, Life technologies) supplemented with 10% Foetal Calf Serum (FCS).
# The cells were trypsinised and counted, 100 μL of 8000 cells was seeded into each well of a clear-bottom black 96-well microplate and incubated overnight to allow adherence to the surface, at 37° C. and 5% CO2 in a cell culture incubator.
# Test compounds were formulated in DMSO and diluted in cell culture medium supplemented with FCS. Grow medium was removed from cells and medium containing compounds dilutions was added to each well. The plate was returned to the incubator for an additional eight hours of incubation at 37° C. and 5% CO2.
# Post incubation cells were fixed by replacing the compounds supplemented medium with 100 μL of 4% formaldehyde in 1× phosphate buffered saline (PBS), for 20 minutes at room temperature. Formaldehyde solution was removed and cells were washed three times with PBS. The Cell-Based ELISA assay (R&D Systems) was carried out immediately after cell fixation or the plate was sealed and fixed cells were stored in PBS at 4° C. until required (no more than two weeks).
# To continue the assay, PBS was removed and cells were washed 3 times for 5 minutes with 200 μL of 1× wash buffer. Each wash step was carried out with gentle shaking. Following washes, 100 μL of 0.6% H2O2 in 1× wash buffer (quenching buffer) was added, plate was sealed and incubated for 20 minutes at room temperature. Post incubation cells were washes 3 times for 5 minutes with 200 μL of 1× wash buffer, with gentle shaking. 100 μL of blocking buffer was added to each well, the plate was re-sealed and incubated at room temperature for 1 h.
# After blocking, cells were washed as described above. A primary antibody mixture was prepared by mixing the two primary antibodies, a rabbit monoclonal antibody for phospho-cdc2 (Tyr15) (Cell Signaling, #4539) and mouse monoclonal antibody for total cdc2 p34 (Santa Cruz Biotechnology, sc-54), diluted 1:25 and 1:50 in blocking buffer, respectively. 60 μL of primary antibody mixture was added to each well, the plate was sealed and incubated overnight at 4° C.
# The primary antibodies were removed and cells were washed as previously described. 100 μL of secondary antibody mixture, containing horseradish-peroxidase (HRP)-conjugated goat anti-rabbit IgG and alkaline phosphatase (AP)-conjugated goat anti-mouse IgG, diluted 1:100 in blocking buffer, was added to each test well. The plate was re-sealed and incubated for 2 hours at room temperature.
# The secondary antibodies were removed and cells washed 2 times with wash buffer, followed by 2 washes with PBS. Each wash step was carried out for 5 minutes with gentle shaking. PBS was removed and 75 μL of fluorogenic substrate for HRP (substrate F1) added to each well. The plate was sealed and incubated for 1 h at room temperature, in the dark. 75 μL of fluorogenic substrate for AP (substrate F2) was added directly to each well, plate re-sealed and incubated for additional 40 minutes at room temperature, protected from direct light.
# Following incubation fluorescence from each well was read at 600 nm (signal from substrate 1, phosphorylated protein) and then at 450 nm (signal from substrate 2, total protein).
# The percentage of phospho-cdc2 was calculated compared to DMSO control, normalized to the total cdc2 and plotted versus the concentration of inhibitor, using GraphPad Prism. Data was fitted using a non-linear regression analysis and EC50 values generated.
# [2] = CLint estimates using human liver microsomes (Method 4); type: in vitro ADME; conditions: pH 7.4, 1 μM compound, read-out: Mics - CLint (HLM CLint)
# Outline: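 Compound at 1 μM (0.1% DMSO) incubated with human liver microsomes (0.5 mg protein/mL) in 0.1 M phosphate pH 7.4 at 37 °C, started with 1 mM NADPH. Samples taken 2–50 min, quenched in methanol, measured by LC/MS/MS (MRM). Half-life and CLint derived from the slope of ln peak area versus time.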
# T1 sequence (P30291 whole entry): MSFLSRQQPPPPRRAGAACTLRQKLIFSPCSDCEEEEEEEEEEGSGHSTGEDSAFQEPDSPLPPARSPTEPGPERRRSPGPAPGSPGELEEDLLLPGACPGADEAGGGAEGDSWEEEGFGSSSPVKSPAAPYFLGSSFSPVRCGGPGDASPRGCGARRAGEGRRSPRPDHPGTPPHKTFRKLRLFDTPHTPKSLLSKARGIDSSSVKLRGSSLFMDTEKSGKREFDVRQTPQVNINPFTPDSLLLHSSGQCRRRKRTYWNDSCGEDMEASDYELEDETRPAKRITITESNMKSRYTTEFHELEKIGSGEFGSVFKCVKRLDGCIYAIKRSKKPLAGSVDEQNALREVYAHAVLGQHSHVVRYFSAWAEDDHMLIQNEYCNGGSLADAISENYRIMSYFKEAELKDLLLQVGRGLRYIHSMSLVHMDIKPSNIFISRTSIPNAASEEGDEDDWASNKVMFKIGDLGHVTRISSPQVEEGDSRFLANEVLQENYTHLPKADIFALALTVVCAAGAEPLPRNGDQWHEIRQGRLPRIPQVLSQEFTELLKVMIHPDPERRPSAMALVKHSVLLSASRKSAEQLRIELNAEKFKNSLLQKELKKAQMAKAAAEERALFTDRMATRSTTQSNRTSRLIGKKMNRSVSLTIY
Compound,IC50 (Wee-1 kinase),microsomal CLint at 1 μM [2],"EC50 ([1]; Homo sapiens, HT-29, 8 h)",EC50 [1]
"O=C1c2cnc(Nc3ccc(N4CCNCC4)cc3)nc2N(c2ccccc2)CN1c1c(Cl)cccc1Cl [Example 171, 3-(2,6-dichlorophenyl)-1-phenyl-7-((4-(piperazin-1-yl)phenyl)amino)-2,3-dihydropyrimido[4,5-d]pyrimidin-4(1H)-one]",≤ 10 nM,–,100 to 1000 nM,–
"CNCC(=O)N1CCN(c2ccc(Nc3ncc4c(n3)N(C)CN(c3c(Cl)cccc3Cl)C4=O)cc2)CC1 [Example 124, 3-(2,6-dichlorophenyl)-1-methyl-7-((4-(4-(2-(methylamino)acetyl)piperazin-1-yl)phenyl)amino)-2,3-dihydropyrimido[4,5-d]pyrimidin-4(1H)-one]",≤ 10 nM,≤ 15 µL/min/mg,100 to 1000 nM,–
"Cc1cc(Nc2ncc3c(n2)N(C)CN(c2c(Cl)cccc2Cl)C3=O)ccc1C1=CCNCC1 [Example 177, 3-(2,6-dichlorophenyl)-1-methyl-7-((3-methyl-4-(1,2,3,6-tetrahydropyridin-4-yl)phenyl)amino)-2,3-dihydropyrimido[4,5-d]pyrimidin-4(1H)-one]",≤ 10 nM,–,100 to 1000 nM,–
"CNCc1cc(Nc2ncc3c(n2)N(C)CN(c2c(Cl)cccc2Cl)C3=O)ccc1-c1cnn(C)c1 [Example 160, 3-(2,6-dichlorophenyl)-1-methyl-7-((4-(1-methyl-1H-pyrazol-4-yl)-3-((methylamino)methyl)phenyl)amino)-2,3-dihydropyrimido[4,5-d]pyrimidin-4(1H)-one]",10 to 100 nM,–,≥ 1000 nM,–
"CN1CN(c2c(Cl)cccc2Cl)C(=O)c2cnc(Nc3ccc4c(c3)C3CCC4N3)nc21 (stereo not shown) [Example 166, 3-(2,6-dichlorophenyl)-1-methyl-7-((1,2,3,4-tetrahydro-1,4-epiminonaphthalen-6-yl)amino)-2,3-dihydropyrimido[4,5-d]pyrimidin-4(1H)-one]",10 to 100 nM,–,≥ 1000 nM,–
"CN1CN(c2c(Cl)cccc2Cl)C(=O)c2cnc(Nc3ccc(N4CC5COCC(C4)N5)c(CO)c3)nc21 [Example 173, 7-((4-(3-oxa-7,9-diazabicyclo[3.3.1]nonan-7-yl)-3-(hydroxymethyl)phenyl)amino)-3-(2,6-dichlorophenyl)-1-methyl-2,3-dihydropyrimido[4,5-d]pyrimidin-4(1H)-one]",10 to 100 nM,–,100 to 1000 nM,–
"CN(C)CC(O)c1cccc(Nc2ncc3c(n2)N(C)CN(c2c(Cl)cccc2Cl)C3=O)c1 (stereo not shown) [Example 172, 3-(2,6-dichlorophenyl)-7-((3-(2-(dimethylamino)-1-hydroxyethyl)phenyl)amino)-1-methyl-2,3-dihydropyrimido[4,5-d]pyrimidin-4(1H)-one]",10 to 100 nM,–,≥ 1000 nM,–
"CN1CN(c2c(Cl)cccc2Cl)C(=O)c2cnc(Nc3ccc(C4CCN(C5CCC5)CC4)c(CO)c3)nc21 [Example 181, 7-((4-(1-cyclobutylpiperidin-4-yl)-3-(hydroxymethyl)phenyl)amino)-3-(2,6-dichlorophenyl)-1-methyl-2,3-dihydropyrimido[4,5-d]pyrimidin-4(1H)-one]",≤ 10 nM,–,100 to 1000 nM,–
"Cc1cc(Nc2ncc3c(n2)N(C)CN(c2c(Cl)cccc2Cl)C3=O)ccc1C1=CCN(C)CC1 [Example 178, 3-(2,6-dichlorophenyl)-1-methyl-7-((3-methyl-4-(1-methyl-1,2,3,6-tetrahydropyridin-4-yl)phenyl)amino)-2,3-dihydropyrimido[4,5-d]pyrimidin-4(1H)-one]",≤ 10 nM,–,100 to 1000 nM,–
"COC[C@H]1CN(c2ccc(Nc3ncc4c(n3)N(C)CN(c3c(Cl)cccc3Cl)C4=O)cc2C(O)C(F)(F)F)CCN1 (single isomer, unassigned) [Example 185]",≤ 10 nM,–,–,100 to 1000 nM
"COC[C@H]1CN(c2ccc(Nc3ncc4c(n3)N(C)CN(c3c(Cl)cccc3Cl)C4=O)cc2C(O)C(F)(F)F)CCN1 (single isomer, unassigned) [Example 184]",≤ 10 nM,–,–,≥ 1000 nM
"C[C@@H]1CN(c2ccc(Nc3ncc4c(n3)N(C)CN(c3ccccc3Cl)C4=O)cc2)C[C@H](C)N1 [Example 103, 3-(2-chlorophenyl)-7-((4-((3S,5R)-3,5-dimethylpiperazin-1-yl)phenyl)amino)-1-methyl-2,3-dihydropyrimido[4,5-d]pyrimidin-4(1H)-one]",10 to 100 nM,–,100 to 1000 nM,–

# Now from value to compound, other results behind:
IC50 (Wee-1 kinase),microsomal CLint at 1 μM [2],Compound,"EC50 ([1]; Homo sapiens, HT-29, 8 h)",EC50 [1]
≤ 10 nM,≤ 15 µL/min/mg,"C[C@@H]1CN(c2ccc(Nc3ncc4c(n3)N(C)CN(c3c(Cl)cccc3Cl)C4=O)cc2CO)CCN1 [Example 38, (R)-3-(2,6-dichlorophenyl)-7-((3-(hydroxymethyl)-4-(3-methylpiperazin-1-yl)phenyl)amino)-1-methyl-2,3-dihydropyrimido[4,5-d]pyrimidin-4(1H)-one]",100 to 1000 nM,–
≤ 10 nM,–,"CN1CN(c2c(Cl)cccc2Cl)C(=O)c2cnc(Nc3ccc(N4C[C@@H]5C[C@H]4CN5)c(CO)c3)nc21 [Example 164, 7-((4-((1S,4S)-2,5-diazabicyclo[2.2.1]heptan-2-yl)-3-(hydroxymethyl)phenyl)amino)-3-(2,6-dichlorophenyl)-1-methyl-2,3-dihydropyrimido[4,5-d]pyrimidin-4(1H)-one]",≥ 1000 nM,–
≤ 10 nM,–,"CN1CC=C(c2ccc(Nc3ncc4c(n3)N(C)CN(c3c(Cl)cccc3Cl)C4=O)cc2CO)CC1 [Example 180, 3-(2,6-dichlorophenyl)-7-((3-(hydroxymethyl)-4-(1-methyl-1,2,3,6-tetrahydropyridin-4-yl)phenyl)amino)-1-methyl-2,3-dihydropyrimido[4,5-d]pyrimidin-4(1H)-one]",100 to 1000 nM,–
10 to 100 nM,–,"CCNCc1cc(Nc2ncc3c(n2)N(C)CN(c2c(Cl)cccc2Cl)C3=O)ccc1N1CCOCC1 [Example 174, 3-(2,6-dichlorophenyl)-7-((3-((ethylamino)methyl)-4-morpholinophenyl)amino)-1-methyl-2,3-dihydropyrimido[4,5-d]pyrimidin-4(1H)-one]",≥ 1000 nM,–
≤ 10 nM,–,"CN1CN(c2c(Cl)cccc2Cl)C(=O)c2cnc(Nc3ccc(N4C[C@@H]5C[C@H]4CN5C)c(CO)c3)nc21 [Example 176, 3-(2,6-dichlorophenyl)-7-((3-(hydroxymethyl)-4-((1S,4S)-5-methyl-2,5-diazabicyclo[2.2.1]heptan-2-yl)phenyl)amino)-1-methyl-2,3-dihydropyrimido[4,5-d]pyrimidin-4(1H)-one]",100 to 1000 nM,–
≤ 10 nM,–,"COC[C@H]1CN(c2ccc(Nc3ncc4c(n3)N(C)CN(c3c(Cl)cccc3Cl)C4=O)cc2C(O)C(F)F)CCN1 (single isomer, unassigned) [Example 163]",–,100 to 1000 nM
≤ 10 nM,–,"CN1CN(c2c(Cl)cccc2Cl)C(=O)c2cnc(Nc3ccc(C4=CCNCC4)c(CO)c3)nc21 [Example 179, 3-(2,6-dichlorophenyl)-7-((3-(hydroxymethyl)-4-(1,2,3,6-tetrahydropyridin-4-yl)phenyl)amino)-1-methyl-2,3-dihydropyrimido[4,5-d]pyrimidin-4(1H)-one]",≥ 1000 nM,–
